According to publication PMC5349910, “Discovery of BPR1K871, a quinazoline based, multi-kinase inhibitor for the treatment of AML and solid tumors: Rational design, synthesis, in vitro and in vivo evaluation” (Oncotarget, 2016):
≈ marks a conversion by molar mass, not a printed value. Entries after “also recorded” stand apart in the source; their conditions may differ.

Tests used:
AURKA = target: T1, AURKA (Homo sapiens, UniProt O14965); assay: AURKA inhibition assay (Kinase-Glo); type: biochemical; conditions: mean of at least two independent experiments, within ±15%
T1 construct: recombinant GST-AURKA (residues Ser123-Ser401) containing the kinase domain; GST (N); made in house; host or cells: Sf9 insect cells
T1 sequence (O14965 123-401): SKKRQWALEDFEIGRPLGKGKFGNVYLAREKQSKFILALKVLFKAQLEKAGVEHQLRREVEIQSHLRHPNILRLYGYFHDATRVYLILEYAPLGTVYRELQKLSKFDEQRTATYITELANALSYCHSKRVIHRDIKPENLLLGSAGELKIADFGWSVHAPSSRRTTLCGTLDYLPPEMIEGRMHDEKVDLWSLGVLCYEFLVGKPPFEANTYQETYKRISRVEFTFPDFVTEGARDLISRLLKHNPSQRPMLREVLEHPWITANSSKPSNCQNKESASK
Experimental: AURKA assay was conducted as previously described. Briefly, the recombinant GST-AURKA (residues Ser123-Ser401) containing the kinase domain was expressed in Sf9 insect cells.
Following incubation, 50 μL Kinase-Glo Plus Reagent (Promega, Madison, WI, USA) was added, and the mixture was incubated at 25°C for 20 min.

FLT3 = target: T2, FLT3 (Homo sapiens, UniProt P36888); assay: FLT3 kinase inhibition assay (Kinase-Glo); type: biochemical; conditions: mean of at least two independent experiments, within ±15%
T2 construct: FLT3 kinase catalytic domain (residues Tyr567-Ser993); made in house; host or cells: Sf9 insect cells (baculovirus, pBac-PAK8-GST-FLT3-KD)
T2 sequence (P36888 567-993): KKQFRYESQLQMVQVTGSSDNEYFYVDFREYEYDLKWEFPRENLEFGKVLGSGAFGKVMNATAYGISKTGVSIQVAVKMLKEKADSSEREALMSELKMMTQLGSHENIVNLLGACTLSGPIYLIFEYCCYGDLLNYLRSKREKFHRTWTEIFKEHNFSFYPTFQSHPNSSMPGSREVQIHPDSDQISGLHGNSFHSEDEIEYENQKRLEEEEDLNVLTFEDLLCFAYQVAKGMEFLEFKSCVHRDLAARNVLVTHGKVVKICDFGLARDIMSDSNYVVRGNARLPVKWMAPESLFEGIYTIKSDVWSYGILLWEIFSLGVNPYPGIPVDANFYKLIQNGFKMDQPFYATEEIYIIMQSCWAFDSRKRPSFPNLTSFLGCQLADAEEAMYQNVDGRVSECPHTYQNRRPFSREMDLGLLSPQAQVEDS
Experimental: The FLT3 assay was conducted as previously described. Briefly, GST-FLT3-KD^WT containing the FLT3 kinase catalytic domain (residues Tyr567-Ser993) was expressed in Sf9 insect cells transfected with the baculovirus containing pBac-PAK8-GST-FLT3-KD plasmid.
Following incubation, 50 μL Kinase-Glo Plus Reagent (Promega, Madison, WI, USA) was added, and the mixture was incubated at 25°C for 20 min. A 70 μL aliquot of each reaction mixture was transferred to a black microliter plate, and luminescence was measured on a Wallac Vector 1420 multilabel counter (PerkinElmer, Shelton, CT, USA).

HCC827 cells = assay: Anti-proliferative activity, HCC827; type: cell-based; conditions: Homo sapiens, HCC827; NSCLC-EGFR L858R; supplement values ± SEM; read-out: HCC827 EC50
Hep 3B cells = assay: Anti-proliferative activity, Hep 3B; type: cell-based; conditions: Hep3B; Human Hepatoma
CL 1-5 cells = assay: Anti-proliferative activity, CL 1-5; type: cell-based; conditions: CL1-5; Human Lung Adenocarcinoma
Aqueous solubility = type: physicochemical
[1] = system: phospho AURKA (Thr288), AURKB (Thr232), AURKC (Thr198), and phospho histone H3 (Ser10); assay: Western blot, phosphorylation of Aurora substrates in HCT-116 cells; type: cell-based, human; conditions: 2.0 h, dose dependent
Description: BPR1K871 inhibited phospho AURKA (Thr288), AURKB (Thr232), AURKC (Thr198), and phospho histone H3 (Ser10) formation in HCT-116 cells in a dose dependent manner (Figure 7A).

[2] = Acute toxicity in ICR mice; type: in vivo; conditions: ICR mice (n = 3), iv, 50 mg/kg once a day for five days
Description: Subsequently, based on the PK study, we evaluated the acute toxicity of BPR1K871 in ICR mice (n = 3) by iv administration.

CN(C)CCCOc1ccc2c(NCCc3cnc(NC(=O)Nc4cccc(Cl)c4)s3)ncnc2c1 [BPR1K871, 1-(3-Chlorophenyl)-3-(5-(2-((7-(3-(dimethylamino)propoxy)quinazolin-4-yl)amino)ethyl)thiazol-2-yl)urea]
IC50 (AURKA): 22 nM
IC50 (FLT3): 19 nM
EC50 (HCC827 cells): 257 nM
EC50 (Hep 3B cells): 2470 nM
EC50 (CL 1-5 cells): 1390 nM
solubility (Aqueous solubility; in water): 0.124 µg/mL (≈ 0.236 µM)
improvement of aqueous solubility in pH ≤ 5.2 buffer solution compared to water (Aqueous solubility; pH ≤ 5.2 buffer solution vs water): up to 4000 fold
inhibition of phospho AURKA, AURKB, AURKC and phospho histone H3 formation [1]: inhibited; also recorded: decreased levels
acute toxicity (tolerability) [2]: well tolerated
TGI ± SD (COLO205 tumors; COLO205, 20 mg/kg iv once a day, days 1–5 and 8–12, day 15, n = 8): 93 ± 9%
body weight loss (COLO205 tumors; COLO205 model, 20 mg/kg iv): ≤ 15%
mortality during the study (COLO205 tumors; COLO205 model, 20 mg/kg iv): no mice died
